ChEMBL document CHEMBL3885881, “DrugMatrix”

Species on record: Rattus norvegicus
Experiment: DrugMatrix - Regimen: Daily Repeat
Type: toxicity, organism-based, Sprague-Dawley
Parameters: regimen Daily Repeat, gender Male, age 6-8 weeks
Conditions: in vivo, po, route oral GAVAGE, vehicle .5 % CMC; for BASOPHIL / EOSINOPHIL / ERYTHROCYTE COUNT / HEMATOCRIT / HEMOGLOBIN / LEUKOCYTE COUNT / LYMPHOCYTE / MEAN CORPUSCULAR HEMOGLOBIN / MEAN CORPUSCULAR HEMOGLOBIN CONCENTRATION / MEAN CORPUSCULAR VOLUME / MONOCYTE / NEUTROPHIL / PLATELET COUNT: tissue Blood; for ALANINE AMINOTRANSFERASE / ALBUMIN / ALKALINE PHOSPHATASE / ASPARTATE AMINOTRANSFERASE / BLOOD UREA NITROGEN / CHLORIDE / CHOLESTEROL / CREATINE PHOSPHOKINASE / CREATININE / GLUCOSE / PHOSPHORUS / POTASSIUM / SODIUM / TOTAL BILIRUBIN / TOTAL PROTEIN: tissue Plasma
[1] = 0 mg/kg, 72 h, dose level Control, time 3 day
[2] = 0 mg/kg, 120 h, dose level Control, time 5 day
[3] = 94 mg/kg, 72 h, dose level High, time 3 day

## O=C(CCCN1CC=C(n2c(=O)[nH]c3ccccc32)CC1)c1ccc(F)cc1 [DROPERIDOL]
[1]
  BASOPHIL: 1.52%
  EOSINOPHIL: 0.98%
  ERYTHROCYTE COUNT: 6.96 x10E6/uL
  HEMATOCRIT: 44.65%
  HEMOGLOBIN: 13.62 G/DL
  LEUKOCYTE COUNT: 9.83 x10E3/uL
  LYMPHOCYTE: 76.48%
  MEAN CORPUSCULAR HEMOGLOBIN: 19.57 pg
  MEAN CORPUSCULAR HEMOGLOBIN CONCENTRATION: 30.47 G/DL
  MEAN CORPUSCULAR VOLUME: 64.22 fL
  MONOCYTE: 2.13%
  NEUTROPHIL: 18.6%
  PLATELET COUNT: 1217.17 x10E3/uL
  ALANINE AMINOTRANSFERASE: 41 u/L
  ALBUMIN: 3.77 G/DL
  ALKALINE PHOSPHATASE: 411.83 u/L
  ASPARTATE AMINOTRANSFERASE: 62.83 u/L
  BLOOD UREA NITROGEN: 15.17 mg/dL
  CHLORIDE: 104.33 MEQ/L
  CHOLESTEROL: 71.17 mg/dL
  CREATINE PHOSPHOKINASE: 123.5 u/L
  CREATININE: 0.55 mg/dL
  GLUCOSE: 182.67 mg/dL
  PHOSPHORUS: 11.23 mg/dL
  POTASSIUM: 7.03 MEQ/L
  SODIUM: 148 MEQ/L
  TOTAL BILIRUBIN: 0.57 mg/dL
  TOTAL PROTEIN: 6.85 G/DL
[2]
  BASOPHIL: 1.35%
  EOSINOPHIL: 0.43%
  ERYTHROCYTE COUNT: 6.96 x10E6/uL
  HEMATOCRIT: 44.35%
  HEMOGLOBIN: 13.98 G/DL
  LEUKOCYTE COUNT: 9.45 x10E3/uL
  LYMPHOCYTE: 80.83%
  MEAN CORPUSCULAR HEMOGLOBIN: 20.1 pg
  MEAN CORPUSCULAR HEMOGLOBIN CONCENTRATION: 31.52 G/DL
  MEAN CORPUSCULAR VOLUME: 63.72 fL
  MONOCYTE: 2.37%
  NEUTROPHIL: 14.05%
  PLATELET COUNT: 1298 x10E3/uL
  ALANINE AMINOTRANSFERASE: 42.17 u/L
  ALBUMIN: 3.77 G/DL
  ALKALINE PHOSPHATASE: 419 u/L
  ASPARTATE AMINOTRANSFERASE: 66.67 u/L
  BLOOD UREA NITROGEN: 16.67 mg/dL
  CHLORIDE: 103.17 MEQ/L
  CHOLESTEROL: 66.33 mg/dL
  CREATINE PHOSPHOKINASE: 148.33 u/L
  CREATININE: 0.58 mg/dL
  GLUCOSE: 196.83 mg/dL
  PHOSPHORUS: 11.8 mg/dL
  POTASSIUM: 6.47 MEQ/L
  SODIUM: 148.33 MEQ/L
  TOTAL BILIRUBIN: 0.53 mg/dL
  TOTAL PROTEIN: 6.77 G/DL
[3]
  BASOPHIL: 2.03%
  EOSINOPHIL: 0.53%
  ERYTHROCYTE COUNT: 7.81 x10E6/uL
  HEMATOCRIT: 49.37%
  HEMOGLOBIN: 15.57 G/DL
  LEUKOCYTE COUNT: 13.33 x10E3/uL
  LYMPHOCYTE: 87.57%
  MEAN CORPUSCULAR HEMOGLOBIN: 20.1 pg
  MEAN CORPUSCULAR HEMOGLOBIN CONCENTRATION: 31.57 G/DL
  MEAN CORPUSCULAR VOLUME: 63.57 fL
  MONOCYTE: 2.1%
  NEUTROPHIL: 7%
  PLATELET COUNT: 1484.33 x10E3/uL
  ALANINE AMINOTRANSFERASE: 35.67 u/L
  ALBUMIN: 4.03 G/DL
  ALKALINE PHOSPHATASE: 335 u/L
  ASPARTATE AMINOTRANSFERASE: 61.67 u/L
  BLOOD UREA NITROGEN: 21.67 mg/dL
  CHLORIDE: 102.33 MEQ/L
  CHOLESTEROL: 79.67 mg/dL
  CREATINE PHOSPHOKINASE: 112.67 u/L
  CREATININE: 0.67 mg/dL
  GLUCOSE: 149 mg/dL
  PHOSPHORUS: 11.77 mg/dL
  POTASSIUM: 7.13 MEQ/L
  SODIUM: 148 MEQ/L
  TOTAL BILIRUBIN: 0.6 mg/dL
  TOTAL PROTEIN: 7.1 G/DL
